Test results as given in patent publication US10800752B2, “Substituted naphtho[2,3-b]furans as water-soluble prodrugs for preventing and/or treating cancer” (BOSTON BIOMEDICAL, INC., priority 2015, dated 2020).
Where two headings read alike, the source gives them in different places.

Format: in vivo, CD1 (ICR) mice
Conditions: for Plasma Compound Concentration: Activated form 1 in plasma, 232.5 mg/kg (p.o.)
Source text: It was then centrifuged to obtain plasma.

COC(=O)[C@@H](N)CCNC(=O)Oc1c2ccccc2c(OC(=O)NCC[C@H](N)C(=O)OC)c2oc(C(C)=O)cc12.Cl.Cl [Example 11]
Plasma Compound Concentration (0.25 hr, animal 1): 18.86 µM | Plasma Compound Concentration (0.25 hr, animal 2): 19.65 µM | Plasma Compound Concentration (0.25 hr, animal 3): 25.31 µM | Plasma Compound Concentration (0.25 hr, mean): 21.27 µM | Plasma Compound Concentration (0.5 hr, animal 1): 17.48 µM | Plasma Compound Concentration (0.5 hr, animal 2): 11.45 µM | Plasma Compound Concentration (0.5 hr, animal 3): 17.11 µM | Plasma Compound Concentration (0.5 hr, mean): 15.35 µM | Plasma Compound Concentration (1.0 hr, animal 1): 10.87 µM | Plasma Compound Concentration (1.0 hr, animal 2): 18.98 µM | Plasma Compound Concentration (1.0 hr, animal 3): 15.93 µM | Plasma Compound Concentration (1.0 hr, mean): 15.26 µM | Plasma Compound Concentration (2.0 hr, animal 1): 13.53 µM | Plasma Compound Concentration (2.0 hr, animal 2): 6.62 µM | Plasma Compound Concentration (2.0 hr, animal 3): 13.57 µM | Plasma Compound Concentration (2.0 hr, mean): 11.24 µM | Plasma Compound Concentration (4.0 hr, animal 1): 6.12 µM | Plasma Compound Concentration (4.0 hr, animal 2): 3.73 µM | Plasma Compound Concentration (4.0 hr, animal 3): 11.49 µM | Plasma Compound Concentration (4.0 hr, mean): 7.11 µM | Plasma Compound Concentration (6.0 hr, animal 1): 2.37 µM | Plasma Compound Concentration (6.0 hr, animal 2): 0.60 µM | Plasma Compound Concentration (6.0 hr, animal 3): 0.75 µM | Plasma Compound Concentration (6.0 hr, mean): 1.24 µM | Plasma Compound Concentration (24.0 hr, animal 3): 0.04 µM | Plasma Compound Concentration (24.0 hr, mean): 0.01 µM | concentration of 2-acetylnaphtho[2,3-b]furan-4,9-dione (Activated form 1) observed (in words) (orally administered to mice): high concentration
